Reference: the supplement of paper PMC10733146

What was measured:
Experiment in all cases: viability relative to DMSO control (fraction); higher = less drug effect (more viable cells)
Conditions in all cases: 48 h
[1] = system: primary AML patient cells (S002)
Method in brief: (§1)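 Compounds were pre-plated at five concentrations, one well each, in 384-well plates, and primary mononuclear tumour cells were plated on them at 4 × 10^4 cells per well. The cells, fresh or cryopreserved, had been Ficoll-isolated from blood or bone marrow or taken from processed lymph node. After 48 h at 37 °C and 5% CO2 in RPMI-1640 with penicillin/streptomycin, L-glutamine and human serum, viability was read as CellTiter-Glo luminescence relative to the median of 16 inner DMSO wells.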

[2] = system: primary AML patient cells (S009)
Method in brief: as §1

[3] = system: primary AML patient cells (S019)
Method in brief: as §1

[4] = system: primary AML patient cells (S025)
Method in brief: as §1

[5] = system: primary AML patient cells (S037)
Method in brief: as §1

[6] = system: primary AML patient cells (S055)
Method in brief: as §1

[7] = system: primary AML patient cells (S071)
Method in brief: as §1

[8] = system: primary AML patient cells (S072)
Method in brief: as §1

[9] = system: primary AML patient cells (S079)
Method in brief: as §1

[10] = system: primary AML patient cells (S089)
Method in brief: as §1

[11] = system: primary AML patient cells (S091)
Method in brief: as §1

[12] = system: primary DLBCL patient cells (S049)
Method in brief: as §1

[13] = system: primary DLBCL patient cells (S076)
Method in brief: as §1

[14] = system: primary DLBCL patient cells (S082)
Method in brief: as §1

[15] = system: primary MCL patient cells (S041)
Method in brief: as §1

[16] = system: primary T-NHL patient cells (S058)
Method in brief: as §1

[17] = system: primary T-PLL patient cells (S008)
Method in brief: as §1

With `Nc1ccn([C@@H]2O[C@H](CO)[C@@H](O)[C@@H]2O)c(=O)n1` [Cytarabine] the viability ([1]; 0.032 µM) was 1.04, the viability ([1]; 0.16 µM) was 0.899 and the viability ([1]; 0.8 µM) was 0.607. The viability ([1]; 4 µM) was 0.317, the viability ([1]; 20 µM) was 0.26 and the viability ([2]; 0.032 µM) was 1.04. For the same molecule, the viability ([2]; 0.16 µM) was 0.96, the viability ([2]; 0.8 µM) was 0.82 and the viability ([2]; 4 µM) was 0.521. For the same molecule, the viability ([2]; 20 µM) was 0.383, the viability ([3]; 0.032 µM) was 1.19 and the viability ([3]; 0.16 µM) was 1.15. For the same molecule, the viability ([3]; 0.8 µM) was 0.871, the viability ([3]; 4 µM) was 0.387 and the viability ([3]; 20 µM) was 0.24. It also gave a viability ([4]; 0.032 µM) of 1.02, a viability ([4]; 0.16 µM) of 0.877 and a viability ([4]; 0.8 µM) of 0.649. It also gave a viability ([4]; 4 µM) of 0.324, a viability ([4]; 20 µM) of 0.112 and a viability ([5]; 0.032 µM) of 1.08. The viability ([5]; 0.16 µM) was 1.03, the viability ([5]; 0.8 µM) was 1.02 and the viability ([5]; 4 µM) was 0.666. For the same molecule, the viability ([5]; 20 µM) was 0.467, the viability ([6]; 0.032 µM) was 1.02 and the viability ([6]; 0.16 µM) was 1.08. The viability ([6]; 0.8 µM) was 0.818, the viability ([6]; 4 µM) was 0.346 and the viability ([6]; 20 µM) was 0.189. The viability ([7]; 0.032 µM) was 0.891, the viability ([7]; 0.16 µM) was 0.797 and the viability ([7]; 0.8 µM) was 0.64. For the same molecule, the viability ([7]; 4 µM) was 0.257, the viability ([7]; 20 µM) was 0.172 and the viability ([8]; 0.032 µM) was 1.14. For the same molecule, the viability ([8]; 0.16 µM) was 1.06, the viability ([8]; 0.8 µM) was 0.995 and the viability ([8]; 4 µM) was 0.774. For the same molecule, the viability ([8]; 20 µM) was 0.458, the viability ([9]; 0.032 µM) was 1.07 and the viability ([9]; 0.16 µM) was 1.01. For the same molecule, the viability ([9]; 0.8 µM) was 0.781, the viability ([9]; 4 µM) was 0.297 and the viability ([9]; 20 µM) was 0.0864. The viability ([10]; 0.032 µM) was 1.1, the viability ([10]; 0.16 µM) was 0.993 and the viability ([10]; 0.8 µM) was 0.783. It also gave a viability ([10]; 4 µM) of 0.142, a viability ([10]; 20 µM) of 0.0678 and a viability ([11]; 0.032 µM) of 0.974. The viability ([11]; 0.16 µM) was 0.858, the viability ([11]; 0.8 µM) was 0.694 and the viability ([11]; 4 µM) was 0.513. For the same molecule, the viability ([11]; 20 µM) was 0.409, the viability ([12]; 0.032 µM) was 1.01 and the viability ([12]; 0.16 µM) was 0.886. It also gave a viability ([12]; 0.8 µM) of 0.673, a viability ([12]; 4 µM) of 0.264 and a viability ([12]; 20 µM) of 0.143. For the same molecule, the viability ([13]; 0.032 µM) was 1.01, the viability ([13]; 0.16 µM) was 0.793 and the viability ([13]; 0.8 µM) was 0.711. For the same molecule, the viability ([13]; 4 µM) was 0.319, the viability ([13]; 20 µM) was 0.118 and the viability ([14]; 0.032 µM) was 1.08. The viability ([14]; 0.16 µM) was 0.974, the viability ([14]; 0.8 µM) was 0.702 and the viability ([14]; 4 µM) was 0.522. It also gave a viability ([14]; 20 µM) of 0.484, a viability ([15]; 0.032 µM) of 1.08 and a viability ([15]; 0.16 µM) of 1. It also gave a viability ([15]; 0.8 µM) of 0.732, a viability ([15]; 4 µM) of 0.21 and a viability ([15]; 20 µM) of 0.115. The viability ([16]; 0.032 µM) was 0.81, the viability ([16]; 0.16 µM) was 0.397 and the viability ([16]; 0.8 µM) was 0.237. For the same molecule, the viability ([16]; 4 µM) was 0.166, the viability ([16]; 20 µM) was 0.108 and the viability ([17]; 0.032 µM) was 1.05. The viability ([17]; 0.16 µM) was 0.968, the viability ([17]; 0.8 µM) was 0.876 and the viability ([17]; 4 µM) was 0.434. The viability ([17]; 20 µM) was 0.209.

`CC(C)C[C@H](NC(=O)CNC(=O)c1cc(Cl)ccc1Cl)B(O)O` [Ixazomib] gave a viability ([1]; 0.008 µM) of 0.843, a viability ([1]; 0.04 µM) of 0.979 and a viability ([1]; 0.2 µM) of 0.932. It also gave a viability ([1]; 1 µM) of 0.972, a viability ([1]; 5 µM) of 0.933 and a viability ([2]; 0.008 µM) of 1.09. The viability ([2]; 0.04 µM) was 0.981, the viability ([2]; 0.2 µM) was 1.08 and the viability ([2]; 1 µM) was 1.03. For the same molecule, the viability ([2]; 5 µM) was 1.09, the viability ([3]; 0.008 µM) was 0.525 and the viability ([3]; 0.04 µM) was 0.757. For the same molecule, the viability ([3]; 0.2 µM) was 0.633, the viability ([3]; 1 µM) was 0.786 and the viability ([3]; 5 µM) was 0.936. For the same molecule, the viability ([4]; 0.008 µM) was 0.932, the viability ([4]; 0.04 µM) was 0.95 and the viability ([4]; 0.2 µM) was 0.952. The viability ([4]; 1 µM) was 1.02, the viability ([4]; 5 µM) was 1.08 and the viability ([5]; 0.008 µM) was 0.982. It also gave a viability ([5]; 0.04 µM) of 0.955, a viability ([5]; 0.2 µM) of 0.939 and a viability ([5]; 1 µM) of 0.937. For the same molecule, the viability ([5]; 5 µM) was 0.955, the viability ([6]; 0.008 µM) was 0.936 and the viability ([6]; 0.04 µM) was 0.984. For the same molecule, the viability ([6]; 0.2 µM) was 0.953, the viability ([6]; 1 µM) was 0.992 and the viability ([6]; 5 µM) was 0.941. It also gave a viability ([7]; 0.008 µM) of 1.01, a viability ([7]; 0.04 µM) of 0.972 and a viability ([7]; 0.2 µM) of 0.995. It also gave a viability ([7]; 1 µM) of 0.98, a viability ([7]; 5 µM) of 0.974 and a viability ([8]; 0.008 µM) of 1.09. It also gave a viability ([8]; 0.04 µM) of 0.984, a viability ([8]; 0.2 µM) of 0.838 and a viability ([8]; 1 µM) of 0.922. It also gave a viability ([8]; 5 µM) of 0.934, a viability ([9]; 0.008 µM) of 0.988 and a viability ([9]; 0.04 µM) of 0.914. For the same molecule, the viability ([9]; 0.2 µM) was 0.888, the viability ([9]; 1 µM) was 1 and the viability ([9]; 5 µM) was 1.02. It also gave a viability ([10]; 0.008 µM) of 1.07, a viability ([10]; 0.04 µM) of 0.69 and a viability ([10]; 0.2 µM) of 0.968. For the same molecule, the viability ([10]; 1 µM) was 0.583, the viability ([10]; 5 µM) was 0.627 and the viability ([11]; 0.008 µM) was 1.07. It also gave a viability ([11]; 0.04 µM) of 0.874, a viability ([11]; 0.2 µM) of 1.13 and a viability ([11]; 1 µM) of 0.811. It also gave a viability ([11]; 5 µM) of 0.8, a viability ([14]; 0.008 µM) of 0.858 and a viability ([14]; 0.04 µM) of 0.964. For the same molecule, the viability ([14]; 0.2 µM) was 0.815, the viability ([14]; 1 µM) was 1.06 and the viability ([14]; 5 µM) was 1.01. The viability ([15]; 0.008 µM) was 0.87, the viability ([15]; 0.04 µM) was 0.97 and the viability ([15]; 0.2 µM) was 0.934. The viability ([15]; 1 µM) was 1.04, the viability ([15]; 5 µM) was 1.05 and the viability ([17]; 0.008 µM) was 0.924. It also gave a viability ([17]; 0.04 µM) of 1.01, a viability ([17]; 0.2 µM) of 1.09 and a viability ([17]; 1 µM) of 1.01. It also gave a viability ([17]; 5 µM) of 0.961.
